Where a name gives a salt, the structure may show the parent alone.
Assays:
glucuronyl transferase = test: Conjugation of microsomal skatole metabolites with glucuronic acid (Trial II-c); type: in vitro ADME; settings: pig liver microsomes, 1 mM UDP-GA, 30 min
Experimental: (§1) Trial II. For evaluation of skatole metabolite production (Trial II-a, n=22), 1 mg/ml of liver microsomes were incubated in Buffer 1,1 mM NADPH, 1 mM NADH, and 0.01 mM skatole in a total volume of 2 ml for 30 min at 37° C. as previously described (Babol et al., 1997). To determine which microsomal skatole metabolites are conjugated with sulfate (Trial II-b, n=3), the reaction mixture was first incubated for 30 min as in Trial II-a. PAPS was then added to 1 mM final concentration and the incubation continued for 30, 60 and 90 min. Control incubations were performed for the same period of time with no PAPS added. Assays to evaluate the conjugation of skatole metabolites with glucuronic acid (Trial II-c, n=3) were conducted in a similar way by adding 1 mM of UDP-GA after 30 min of initial incubation and continuing the incubation for a further 7.5, 15 and 30 min. […]
(§2) Trial II. […] The metabolites were separated with RP C18 column and detected by measuring UV absorbance at 250 nm and fluorescence with excitation and emission wavelengths set at 285 and 340 nm.
(§3) Trial II. The effect of time of incubation of skatole metabolites with PAPS (Trial I1-b) and UDPGA (Trial I1-c) on the concentrations of the metabolites was analyzed using untransformed values with the GLM procedure. […] The differences in the metabolic activities among the groups were analyzed with the GLM procedure.

cytochrome P450 = system: cytochrome P450
Experimental: The metabolism of skatole was assayed in a medium containing 50 mM Tris-HCL buffer, pH 7.4, 10 mM potassium phosphate, 0.1 mM EDTA, 20% glycerol, 0.01 mM skatole and 1 mg/mL microsomel protein in a total volume of 2 mL. The reactions were started by addition of NADH and NADPH to 1 mM final concentration of each after 3 min of preincubation at 37° C. After 30 min at 37° C., the reactions were terminated by addition of 2 mL of ice-cold 0.2 M ammonium acetate buffer, pH 5.0.
Those incubations with no inhibitor added were regarded as controls. The effect of different P450 inhibitors on skatole metabolism was evaluated under the same conditions by including different concentrations of P450 inhibitors into the medium before preincubation.
Each assay was performed in duplicate. […] After adding ammonium acetate buffer, 5 μL of 0.01 mg/mL indole-3-acetonitrile was added to the reaction mixture as an internal standard. The mixture was then passed through a solid phase extraction tC18 cartridge (Waters Co., Milford, Mass.) previously conditioned with 2 mL of methanol and then 2 mL of water. The column was washed with 1 mL of water and skatole metabolites were eluted with 2×0.5 mL of acetonitrile. The acetonitrile was removed under a gentle stream of nitrogen at 40° C. and the metabolites were resuspended in 200 μl of acetonitrile for HPLC analysis. The HPLC equipment included a Spectra-Physics (San Jose, Calif., USA) SP8800 pump, SP8800 autosampler and SP4290 integrator, and a Phenomenex (Torrance, Calif., USA) Prodigy ODS-2 C18, 250×4.6 mm, 5 μm column. […] Injection volume was 100 μl.
For the purpose of the analysis, peak areas of the metabolites in control incubations were considered as 100%. Peak areas of the metabolites in the incubations with inhibitors were transformed to values of those for controls. The statistical model included the effect of the concentration of inhibitor and the effect of animal.

CYP2E1 = CYP2E1 (Sus scrofa, UniProt P79383); settings: uncastrated Yorkshire male pigs; 0.5 g/kg BW daily by gavage, day 14 to day 50; after day 27; P<0.05
Chain of CYP2E1 (P79383 whole entry): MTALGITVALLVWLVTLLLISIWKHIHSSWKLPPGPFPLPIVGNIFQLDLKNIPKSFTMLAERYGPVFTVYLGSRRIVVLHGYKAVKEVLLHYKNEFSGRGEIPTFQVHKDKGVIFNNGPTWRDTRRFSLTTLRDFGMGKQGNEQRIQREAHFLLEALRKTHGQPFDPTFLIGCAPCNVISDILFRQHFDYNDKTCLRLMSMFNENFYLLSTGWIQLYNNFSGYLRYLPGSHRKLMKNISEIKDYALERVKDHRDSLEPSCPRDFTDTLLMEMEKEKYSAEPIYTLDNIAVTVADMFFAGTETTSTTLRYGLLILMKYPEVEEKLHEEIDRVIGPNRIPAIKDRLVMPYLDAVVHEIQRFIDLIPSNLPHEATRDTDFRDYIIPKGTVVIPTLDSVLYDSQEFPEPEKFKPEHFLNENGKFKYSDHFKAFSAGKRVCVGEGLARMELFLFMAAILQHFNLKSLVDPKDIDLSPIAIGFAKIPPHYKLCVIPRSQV
Experimental: Eight uncastrated Yorkshire male pigs were utilized in the study. Four males were assigned to the control group while the remaining four were treated with 0.5 g/kg BW of ethanol daily by gavage. Ethanol is a well-established inducer of CYP2E1. Treatment began at day 14 and continued until day 50. Blood samples were collected weekly and plasma skatole levels were measured by HPLC.

[1] = system: thermostable phenol sulfotransferase; test: Sulfation of 5-OH-3MI by liver cytosol with phenolsulfotransferase inhibitors (Trial III); type: biochemical; settings: pig liver cytosol, 0.01 mM 5-OH-3MI, 1 mM PAPS, 10 min
Experimental: Trial III. The assay of 5-OH-3MI sulfation in Trial III utilized 1 mg cytosolic protein incubated with 0.01 mM 5-OH-3MI and 1 mM PAPS in 0.05M Tris/HCl pH 7.4 buffer containing 5 mM MgC12 in a total volume of 250 μl. The incubations were carried out in a shaking water bath at 37° C. for 10 min and the reaction was stopped with 250 μL ice-cold acetonitrile. After the addition of acetonitrile, the mixture was vortexed and centrifuged at 4,000 g for 15 min. A 400 μL aliquot of the clear supernatant was diluted with 400 μL water and 100 μL of the mixture was analyzed immediately by high-performance liquid chromatography (HPLC) as described below. Conjugates were identified based on the following criteria: (1) no peaks corresponding to conjugates appeared when cytosol and/or PAPS were excluded from the incubations; (2) no peaks corresponding to conjugates appeared when boiled cytosol was used, and (3) the peaks corresponding to the conjugates disappeared after addition of 10 μl of type H-2 sulfatase to the incubation mixture and further incubation for 3 h at 37° C. in a shaking water bath. Sulfation activity was measured as the formation of sulfoconjugate per minute per mg of cytosolic protein.
The effects of the phenolsulfotransferase inhibitors PCP and DCNP on the sulfation of 5-OH-3MI were determined by including different final concentrations of PCP or DCNP (0.001, 0.01, 0.1, 1, 10, 100 μM) in the assays. PCP was dissolved in methanol (final assay concentration 1%, v/v) and control incubations for PCP inihibition studies contained 1% methanol. DCNP was dissolved in incubation buffer.
Trial III. 5-OH-skatole and its sulfate conjugate were separated using a previously reported binary gradient system method (Hernandez et al., 1991) with a reverse-phase Prodigy ODS, 5 μm, 250×4.6 mm column (Phenomenex, Torrance, Calif., USA). The mobile phase consisted of 0.05M ammonium acetate buffer pH 5.0, at a flow rate of 1.2 ml/min. A 25-min linear gradient from 10 to 60% acetonitrile was used, with initiation of the gradient 2 min after sample injection. 5-OH-skatole and its conjugate were determined by their fluorescence (excitation wavelength of 285 nm, emission wavelength of 350 nm). Typical retention times for 5-OH-skatole and its conjugate were 18.5 and 13.4 min, respectively.

sulfotransferase = test: Conjugation of microsomal skatole metabolites with sulfate (Trial II-b); type: in vitro ADME; settings: pig liver microsomes, 1 mM PAPS, 90 min
Experimental: as §1, §2, §3

Cc1c[nH]c2ccccc12 [skatole, 3-methylindole]
Concentration in incubation with UDPGA, % of control incubations (glucuronyl transferase): 126.1%

CC(C)(C(=O)c1cccnc1)c1cccnc1 [metyrapone]
Amount of skatole remaining in the reaction mixture after incubation versus control (cytochrome P450): higher | Formation of UV-3, effect in words (cytochrome P450): reduced

C=CCSCC=C [DAS, diallyl sulfide]
Formation of all the other skatole metabolites, except for F-1 (cytochrome P450): inhibited | Skatole disappearance, effect in words (cytochrome P450): reduced

CCO [ethanol]
Plasma skatole levels versus control group (CYP2E1): significantly lower

Oc1c(Cl)c(Cl)c(Cl)c(Cl)c1Cl [PCP, Pentachlorophenol]
5-sulfatoxyskatole production, % of the control ([1]; inhibitor 10 μM): 35.3% | 5-sulfatoxyskatole production, % of the control ([1]; inhibitor 100 μM): 8%

Cc1c[nH]c2cc(O)ccc12 [pro-MII, 6-Hydroxy-3-methylindole]
Concentration in incubation with PAPS, % of control (sulfotransferase): 40% | Concentration in incubation with UDPGA, % of control incubations (glucuronyl transferase): 20%

O=[N+]([O-])c1cc(Cl)c(O)c(Cl)c1 [DCNP, 2,6-dichloro-4-nitrophenol]
5-sulfatoxyskatole production, % of the control ([1]; inhibitor 10 μM): 13.8% | 5-sulfatoxyskatole production, % of the control ([1]; inhibitor 100 μM): 7.1%

CCCC(C(=O)OCCN(CC)CC)(c1ccccc1)c1ccccc1 [SKF 525A, SKF 525A hydrochloride (Proadifen)]
Amount of skatole remaining in the reaction mixture after incubation versus control (cytochrome P450): not affected | Formation of F-2, effect in words (cytochrome P450): reduced | Formation of F-3, effect in words (cytochrome P450): reduced | Formation of UV-3, effect in words (cytochrome P450): reduced

From patent US20050216965A1, “Method of detecting and reducing boar taint” (UNIVERSITY OF GUELPH, priority 1998, published 2005)
